Laboratory results: BindingDB's records for doi:10.1073/pnas.74.9.3805 (1977)
Where “and” joins values, the source holds several entries; their conditions need not be identical. Equal values may be shown once.

Target: Gamma-aminobutyric acid receptor subunit alpha-1 (Rattus norvegicus, UniProt P62813)
Sequence (P62813 whole entry): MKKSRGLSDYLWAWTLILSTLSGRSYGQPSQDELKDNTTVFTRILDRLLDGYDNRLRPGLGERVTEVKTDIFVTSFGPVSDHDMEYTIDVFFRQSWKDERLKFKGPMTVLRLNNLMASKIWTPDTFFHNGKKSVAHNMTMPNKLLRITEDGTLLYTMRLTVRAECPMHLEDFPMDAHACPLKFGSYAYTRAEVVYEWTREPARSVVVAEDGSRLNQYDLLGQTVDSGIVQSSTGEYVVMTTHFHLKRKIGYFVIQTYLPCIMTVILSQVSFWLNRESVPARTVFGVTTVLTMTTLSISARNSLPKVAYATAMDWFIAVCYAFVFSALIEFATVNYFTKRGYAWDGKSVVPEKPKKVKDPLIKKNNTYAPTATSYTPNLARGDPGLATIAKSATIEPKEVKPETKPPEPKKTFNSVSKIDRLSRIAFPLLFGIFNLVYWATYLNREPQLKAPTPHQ

## O=C1CN=C(c2ccccc2Cl)c2cc([N+](=O)[O-])ccc2N1 [5-(2-chlorophenyl)-7-nitro-1,3-dihydro-2H-1,4-benzodiazepin-2-one]
  Ki: 5.08 µM and 2.9 µM and 7.9 µM
